From US9980943B2, “Methods of treating muscular dystrophy” (BOARD OF REGENTS OF THE NEVADA SYSTEM OF HIGHER EDUCATION, …, priority 2013, dated 2018)

Legend:
Assay type in all cases: cell-based, mouse
[1] = tested on: β-galactosidase in CMV-LacZ C2C12 myoblasts; test: CMV-LacZ secondary screen in C2C12 myoblasts (β-Gal stabilizing assay); settings: CMV-LacZ C2C12 myoblasts
Procedure, shortened: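 C2C12 myoblasts stably carrying a linearized CMV-driven LacZ construct, clone chosen by β-gal level in the myoblast FDG assay. Compounds tested in 96-well dose-response at 0.5, 1, 5, 10, 20 and 40 μM, N=2 replicates per point, to detect β-gal stabilization.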

[2] = tested on: α7 integrin (LacZ reporter in α7+/LacZ myotubes); test: Myotube α7 integrin FDG assay (Burkin assay in myotubes, 96-well); settings: myotubes
[3] = tested on: β-galactosidase in CMV-LacZ C2C12 myotubes; test: CMV-LacZ secondary screen in C2C12 myotubes (β-Gal stabilizing assay); settings: C2C12 CMV-LacZ myotubes, fold relative to DMSO
Procedure, shortened: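 Stable CMV-LacZ C2C12 clone; six-point curve 0.5–40 μM; duplicates.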

[4] = tested on: α7 integrin (LacZ reporter in α7βgal+/− myoblasts); test: Myoblast α7+/LacZ integrin FDG assay (Burkin assay in myoblasts, 96-well); settings: α7+/LacZ myoblasts, 96-well

Structure (SMILES)	CMV-LACZ in Myoblasts (β-galactosidase activity relative to DMSO) ([1]; 0.5 uM)	CMV-LACZ in Myoblasts (β-galactosidase activity relative to DMSO) ([1]; 1 uM)	CMV-LACZ in Myoblasts (β-galactosidase activity relative to DMSO) ([1]; 5 uM)	CMV-LACZ in Myoblasts (β-galactosidase activity relative to DMSO) ([1]; 10 uM)	CMV-LACZ in Myoblasts (β-galactosidase activity relative to DMSO) ([1]; 20 uM)	CMV-LACZ in Myoblasts (β-galactosidase activity relative to DMSO) ([1]; 40 uM)	Burkin Assay in Myotubes, α7 integrin LacZ reporter signal relative to DMSO ([2]; 0.5 uM)	Burkin Assay in Myotubes, α7 integrin LacZ reporter signal relative to DMSO ([2]; 1 uM)	Burkin Assay in Myotubes, α7 integrin LacZ reporter signal relative to DMSO ([2]; 5 uM)	Burkin Assay in Myotubes, α7 integrin LacZ reporter signal relative to DMSO ([2]; 10 uM)	Burkin Assay in Myotubes, α7 integrin LacZ reporter signal relative to DMSO ([2]; 20 uM)	Burkin Assay in Myotubes, α7 integrin LacZ reporter signal relative to DMSO ([2]; 40 uM)	CMV-LACZ in Myotubes, signal relative to DMSO ([3]; 0.5 uM)	CMV-LACZ in Myotubes, signal relative to DMSO ([3]; 1 uM)	CMV-LACZ in Myotubes, signal relative to DMSO ([3]; 5 uM)	CMV-LACZ in Myotubes, signal relative to DMSO ([3]; 10 uM)	CMV-LACZ in Myotubes, signal relative to DMSO ([3]; 20 uM)	CMV-LACZ in Myotubes, signal relative to DMSO ([3]; 40 uM)	Burkin Assay in Myoblasts, signal relative to DMSO ([4]; 0.5 uM)	Burkin Assay in Myoblasts, signal relative to DMSO ([4]; 1 uM)	further results
COc1ccc(CN2CCNC(=O)C2CC(=O)NCCc2c[nH]c3ccccc23)c(OC)c1 (stereo not drawn) [MLS000734270-01]	0.9296	0.8379	0.9337	0.9468	1.0122	0.9548	0.941	0.8975	1.083	0.9081	0.8558	0.8102	1.0019	1.0038	1.1042	1.0885	1.1158	0.9095	1.0135	1.048	Burkin Assay in Myoblasts, signal relative to DMSO ([4]; 5 uM): 1.21; Burkin Assay in Myoblasts, signal relative to DMSO ([4]; 10 uM): 0.955; Burkin Assay in Myoblasts, signal relative to DMSO ([4]; 20 uM): 0.9739; Burkin Assay in Myoblasts, signal relative to DMSO ([4]; 40 uM): 0.9873
CN(CCC1CCCCO1)C(=O)CCc1nnc(CCCCc2ccccc2)o1 (stereo not drawn) [MLS000735021-01]	0.8683	1.1646	0.9756	0.9907	1.2130	0.9767	1.013	1.009	0.9137	1.006	0.8444	0.8523	1.0105	1.0221	0.9548	0.9616	1.0378	1.0778	0.9402	0.9246	Burkin Assay in Myoblasts, signal relative to DMSO ([4]; 5 uM): 0.9982; Burkin Assay in Myoblasts, signal relative to DMSO ([4]; 10 uM): 0.9765; Burkin Assay in Myoblasts, signal relative to DMSO ([4]; 20 uM): 1.025; Burkin Assay in Myoblasts, signal relative to DMSO ([4]; 40 uM): 0.9941
COc1ccc(N=Nc2ccc(N)nc2N)cc1 [MLS000736846-01]	1.1009	1.0386	1.0269	1.1101	1.3459	1.0174	1.131	1.144	1.004	0.9396	0.8776	0.9673	0.8438	0.9714	1.0250	1.1737	1.1000	1.2788	1.218	1.2858	Burkin Assay in Myoblasts, signal relative to DMSO ([4]; 5 uM): 1.07; Burkin Assay in Myoblasts, signal relative to DMSO ([4]; 10 uM): 1.012; Burkin Assay in Myoblasts, signal relative to DMSO ([4]; 20 uM): 1.0406; Burkin Assay in Myoblasts, signal relative to DMSO ([4]; 40 uM): 0.9563
